Laboratory results reported in US9045525B2, “Amyloid β-protein-specific production-inhibiting polypeptide” (THE DOSHISHA, priority 2012, dated 2015).
Peptide text beside a SMILES is read from it.

Columns and labels:
Aβ in the cerebrum = assay: Intraperitoneal administration to mouse, Aβ in cerebrum; assay type: in vivo; conditions: 150 mg/kg intraperitoneally, three consecutive days, wild-type mice
Protocol: 150 mg/kg #4 polypeptide dissolved in DMSO was intraperitoneally administered to ten wild-type mice (C57 BL/6 N Cr Slc, seven weeks old). The administration was conducted for three consecutive days. Four days after, the mice were euthanized to extract the cerebrum.
The extracted cerebrums were dissolved by using a known method, subjected to immunoprecipitation with anti-4G8 antibody, and then subjected to Western blotting using the anti-mouse Aβ antibody. An experiment was conducted in the same manner except that only DMSO was administered as the negative control experiment group (ten mice).
In the Western blotting, an experiment was conducted using 5, 10, 50, 100, and 200 pg rodent-originated Aβ as the standard reference material. FIG. 10(A−1) and […] show the results.

CHO-K1 cells = assay: Mouse Aβ production inhibition experiment, CHO-K1 cells; assay type: cell-based; conditions: polypeptide 20 μM, CHO-K1 cells expressing mouse-type APP, anti-mouse Aβ antibody Western blotting
Protocol: (§1) #1, #2, and #4 polypeptides were added to the culture solutions of CHO-K1 cells and Neuro 2A cells (N2A) in such a manner that the final concentration was 20 μM. As a control, L685458 (i.e., a γ-secretase inhibitor) and DMSO were added thereto in such a manner that the final concentration was 20 μM.
(§2) Thereafter, Aβ contained in the cell culture medium was identified by using a Western-blotting method with an antibody (anti-mouse Aβ antibody) that recognizes Aβ. […] In the figure, L indicates L685458, which is a γ-secretase inhibitor (final concentration of 1 μM).

Neuro 2A cells (N2A) = assay: Mouse Aβ production inhibition experiment, Neuro 2A cells; assay type: cell-based; conditions: polypeptide 20 μM, Neuro2A cells expressing mouse-type APP, anti-mouse Aβ antibody Western blotting
Protocol: as §1, §2

[1] = tested on: Notch transiently expressed in CHO-K1 cells (7WD10 cells); assay: Cleavage of Notch protein (NICD) in 7WD10 cells; assay type: cell-based; conditions: polypeptide 1, 5, 10, 20, and 50 μM
Protocol: An experiment was conducted wherein #1, #2, and #4 polypeptides were reacted with CHO-K1 cells (7WD10 cells) that stably expressed APP protein and transiently expressed Notch to confirm the production of Aβ protein and cleavage of Notch protein.

CC[C@H](C)[C@H](NC(=O)[C@H](CC(=O)O)NC(=O)[C@@H](NC(=O)[C@@H](NC(=O)[C@H](CS)NC(=O)[C@H](Cc1ccc(O)cc1)NC(=O)[C@H](CS)NC(=O)[C@H](CC(=O)O)NC(=O)[C@H](CS)NC(=O)[C@@H](NC(=O)[C@@H](NC(=O)[C@H](CC(C)C)NC(=O)[C@H](Cc1c[nH]cn1)NC(=O)[C@H](CCSC)NC(C)=O)C(C)C)[C@@H](C)CC)[C@@H](C)O)[C@@H](C)O)C(=O)N[C@@H](CS)C(=O)N[C@@H](Cc1ccc(O)cc1)C(=O)N[C@@H](CS)C(=O)N[C@@H](Cc1ccc(O)cc1)C(=O)N[C@@H](CO)C(=O)N[C@@H](CS)C(=O)N[C@H](C(=O)N1CCC[C@H]1C(=O)N[C@@H](CC(N)=O)C(N)=O)[C@@H](C)O [#4] (Ac-MHLVICDCYCTTDICYCYSCTPN-NH2)
Aβ production inhibition (bands quantified with densitometry) (Aβ in the cerebrum): excellent Aβ production inhibition effect | bands indicating Aβ in the cerebrum (Western blotting) (Aβ in the cerebrum; compared to DMSO): the number of bands indicating Aβ was reduced | production of Aβ in the culture medium (CHO-K1 cells): the production of Aβ in the culture medium was reduced | production of Aβ in the culture medium (Neuro 2A cells (N2A)): the production of Aβ in the culture medium was reduced | abundance of the NICD in the cell lysate [1]: not decreased
